Data published in patent publication US20130071854A1, “METHODS FOR THE IDENTIFICATION AND CHARACTERIZATION OF HDAC INTERACTING COMPOUNDS” (priority 2009, published 2013).
Like-named read-outs stand apart in the source and are kept apart here.

Legend:
GPS2 = conditions: Molt-4 cell lysate
GATAD2B = assay: Competition binding assay in cell lysate, affinity matrix, MS (Mi-2/NuRD interactor)
TBL1X = conditions: K-562 cell lysate
MTA3 = assay: Competition binding assay in cell lysate, affinity matrix, MS (Mi-2/NuRD interactor); conditions: K-562 cell lysate
MTA2 = assay: as above
Sin3 complex = assay: Chemoproteomic binding profiling, K562 cell extract, SAHA/ITF2357 probe matrix (Kd app); set-up: species or system human
RBBP7 = assay: Competition binding assay in cell lysate, affinity matrix, MS (Sin3/Mi2-NuRD interactor)
MBD3 = assay: Competition binding assay in cell lysate, affinity matrix, MS (Mi-2/NuRD interactor)
ALDH2 = biological target: T1, ALDH2 (Homo sapiens, UniProt P05091); assay: Competition binding assay in cell lysate, affinity matrix, MS; conditions: ALDH2, read-out: IC50
T1 construct: endogenous in cells
T1 sequence (P05091 18-517): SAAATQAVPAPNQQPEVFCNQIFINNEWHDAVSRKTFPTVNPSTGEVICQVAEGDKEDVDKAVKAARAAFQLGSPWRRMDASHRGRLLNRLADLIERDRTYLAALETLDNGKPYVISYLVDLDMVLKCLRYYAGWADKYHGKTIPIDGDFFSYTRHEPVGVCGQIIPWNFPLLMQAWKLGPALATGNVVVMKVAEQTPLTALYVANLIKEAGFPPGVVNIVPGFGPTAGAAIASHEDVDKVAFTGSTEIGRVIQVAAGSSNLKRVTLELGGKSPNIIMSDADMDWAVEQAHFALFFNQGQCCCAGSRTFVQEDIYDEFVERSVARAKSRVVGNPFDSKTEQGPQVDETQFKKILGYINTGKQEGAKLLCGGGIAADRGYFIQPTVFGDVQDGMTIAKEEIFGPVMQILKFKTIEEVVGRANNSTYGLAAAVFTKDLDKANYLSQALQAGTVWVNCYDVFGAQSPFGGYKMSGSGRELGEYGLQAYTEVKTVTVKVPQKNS

MTA1 = assay: Competition binding assay in cell lysate, affinity matrix, MS (Mi-2/NuRD interactor); set-up: species or system human; conditions: Molt-4 cell lysate
[1] = tested on: histone acetylation, K562 cells; assay: Mapping of histone acetylation by LC-MS/MS of K562 cells treated with HDACi; assay type: cell-based, human; conditions: K562 cells treated 6 hours, isobaric tagging and MS/MS
GATAD2A = assay: Competition binding assay in cell lysate, affinity matrix, MS (Mi-2/NuRD interactor)
DNTTIP1 = assay: Competition binding assay in cell lysate, affinity matrix, MS; conditions: K-562 cell lysate
NuRD complex = assay: Chemoproteomic binding profiling, K562 cell extract, SAHA/ITF2357 probe matrix (Kd app); set-up: species or system human
HSPD1 = biological target: T2, HSPD1 (Homo sapiens, UniProt P10809); assay: Competition binding assay in cell lysate, affinity matrix, MS; conditions: HSPD1, read-out: IC50
T2 construct: endogenous in cells
T2 sequence (P10809 27-573): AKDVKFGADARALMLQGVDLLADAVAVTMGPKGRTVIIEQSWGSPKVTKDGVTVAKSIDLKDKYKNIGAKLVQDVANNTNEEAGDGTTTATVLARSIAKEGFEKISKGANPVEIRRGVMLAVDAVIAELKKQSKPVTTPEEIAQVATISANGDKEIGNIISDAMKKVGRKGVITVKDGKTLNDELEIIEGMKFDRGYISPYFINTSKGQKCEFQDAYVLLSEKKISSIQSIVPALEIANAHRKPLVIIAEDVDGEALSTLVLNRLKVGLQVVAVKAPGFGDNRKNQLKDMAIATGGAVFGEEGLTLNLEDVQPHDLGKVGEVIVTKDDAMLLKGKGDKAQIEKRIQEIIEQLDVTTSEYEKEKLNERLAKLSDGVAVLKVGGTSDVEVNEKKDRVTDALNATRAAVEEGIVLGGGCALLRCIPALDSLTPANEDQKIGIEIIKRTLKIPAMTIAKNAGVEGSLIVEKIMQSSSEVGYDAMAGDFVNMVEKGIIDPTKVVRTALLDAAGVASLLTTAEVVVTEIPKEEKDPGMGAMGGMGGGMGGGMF

ISOC1 = biological target: T3, ISOC1 (Homo sapiens, UniProt Q96CN7); assay: as above; conditions: ISOC1, read-out: IC50
T3 construct: endogenous in cells
T3 sequence (Q96CN7 1-298): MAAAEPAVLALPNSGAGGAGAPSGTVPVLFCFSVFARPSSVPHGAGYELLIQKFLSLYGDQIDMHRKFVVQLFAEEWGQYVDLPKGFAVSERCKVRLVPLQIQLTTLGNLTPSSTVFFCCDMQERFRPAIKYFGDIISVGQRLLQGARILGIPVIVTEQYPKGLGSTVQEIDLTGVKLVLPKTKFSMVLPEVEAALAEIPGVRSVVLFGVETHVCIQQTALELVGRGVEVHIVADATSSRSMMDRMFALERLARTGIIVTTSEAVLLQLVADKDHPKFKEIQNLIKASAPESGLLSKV

PPP4C = biological target: T4, PPP4C (Homo sapiens, UniProt P60510); assay: as above; conditions: PPP4C, read-out: IC50
T4 construct: endogenous in cells
T4 sequence (P60510 1-307): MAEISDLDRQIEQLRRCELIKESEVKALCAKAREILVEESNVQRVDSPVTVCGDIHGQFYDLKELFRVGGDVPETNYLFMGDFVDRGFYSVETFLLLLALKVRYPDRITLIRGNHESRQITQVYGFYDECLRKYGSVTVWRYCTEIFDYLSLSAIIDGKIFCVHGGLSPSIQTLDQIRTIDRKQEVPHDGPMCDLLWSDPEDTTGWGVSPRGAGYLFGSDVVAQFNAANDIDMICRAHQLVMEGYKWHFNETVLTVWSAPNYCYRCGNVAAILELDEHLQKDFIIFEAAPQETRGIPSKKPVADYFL

CoREST complex = assay: Chemoproteomic binding profiling, K562 cell extract, SAHA/ITF2357 probe matrix (Kd app); set-up: species or system human; conditions: read-out: Kd^app GSE1
BZW2 = biological target: T5, BZW2 (Homo sapiens, UniProt Q9Y6E2); assay: Competition binding assay in cell lysate, affinity matrix, MS; conditions: BZW2, read-out: IC50
T5 construct: endogenous in cells
T5 sequence (Q9Y6E2 1-419): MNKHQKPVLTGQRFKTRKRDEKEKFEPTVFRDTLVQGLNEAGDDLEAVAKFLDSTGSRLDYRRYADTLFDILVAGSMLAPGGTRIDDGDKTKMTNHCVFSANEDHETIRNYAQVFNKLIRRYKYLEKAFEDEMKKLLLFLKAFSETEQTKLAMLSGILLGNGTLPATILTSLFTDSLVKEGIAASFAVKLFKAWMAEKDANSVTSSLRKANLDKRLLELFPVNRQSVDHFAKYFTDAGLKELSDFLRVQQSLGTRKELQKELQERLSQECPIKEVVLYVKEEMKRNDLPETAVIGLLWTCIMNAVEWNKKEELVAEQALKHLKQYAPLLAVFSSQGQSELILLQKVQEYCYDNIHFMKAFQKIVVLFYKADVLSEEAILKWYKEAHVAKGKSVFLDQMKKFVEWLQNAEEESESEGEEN

ISOC2 = biological target: T6, ISOC2 (Homo sapiens, UniProt Q96AB3); assay: as above; conditions: ISOC2; K-562 cell lysate
T6 construct: endogenous in cells
T6 sequence (Q96AB3 whole entry): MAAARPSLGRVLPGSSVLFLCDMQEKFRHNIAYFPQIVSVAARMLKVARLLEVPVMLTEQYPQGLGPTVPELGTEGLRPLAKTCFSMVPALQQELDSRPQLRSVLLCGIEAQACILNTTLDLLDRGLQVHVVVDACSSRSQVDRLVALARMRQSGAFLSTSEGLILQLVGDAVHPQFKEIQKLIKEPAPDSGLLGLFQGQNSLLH

WDR5 = biological target: T7, WDR5 (Homo sapiens, UniProt P61964); assay: as above; conditions: WDR5; K-562 cell lysate
T7 construct: endogenous in cells

SMILES: CC(/C=C/C(=O)NO)=C\[C@@H](C)C(=O)c1ccc(N(C)C)cc1 [Trichostatin A]
- IC50 (GPS2): 100 nM
- IC50 (GATAD2B; K-562 cell lysate): 60 nM
- IC50 (GATAD2B; Molt-4 cell lysate): 60 nM
- IC50 (TBL1X): 50 nM
- IC50 (MTA3): 60 nM
- IC50 (MTA2; K-562 cell lysate): 70 nM
- IC50 (MTA2; Molt-4 cell lysate): 60 nM
- Kd (Sin3 complex; protein SAP30, read-out: Kd^app SAP30): 30 nM
- Kd (Sin3 complex; protein SIN3A, read-out: Kd^app SIN3A): 30 nM
- Kd (Sin3 complex; protein SIN3B, read-out: Kd^app SIN3B): 30 nM
- IC50 (RBBP7; K-562 cell lysate): 180 nM
- IC50 (RBBP7; Molt-4 cell lysate): 120 nM
- IC50 (TBL1XR1; K-562 cell lysate): 70 nM
- IC50 (TBL1XR1; Molt-4 cell lysate): 70 nM
- IC50 (MBD3; K-562 cell lysate): 50 nM
- IC50 (MBD3; Molt-4 cell lysate): 40 nM
- IC50 (ALDH2; K-562 cell lysate): 3000 nM
- IC50 (ALDH2; Molt-4 cell lysate): 3000 nM
- IC50 (MTA1): 60 nM
- abundance of acetylated histone peptides (in words) [1]: pronounced abundance of hyperacetylated histone peptides
- IC50 (GATAD2A; K-562 cell lysate): 60 nM
- IC50 (GATAD2A; Molt-4 cell lysate): 40 nM
- IC50 (DNTTIP1): 50 nM
- Kd (NuRD complex; read-out: Kd^app CHD4): 60 nM
- Kd (NuRD complex; read-out: Kd^app GATAD2B): 30 nM
- Kd (NuRD complex; read-out: Kd^app MTA1): 120 nM
- IC50 (HSPD1; K-562 cell lysate): 3000 nM
- IC50 (HSPD1; Molt-4 cell lysate): 3000 nM
- IC50 (ISOC1; K-562 cell lysate): 3000 nM
- IC50 (ISOC1; Molt-4 cell lysate): 3000 nM
- IC50 (PPP4C; K-562 cell lysate): 3000 nM
- IC50 (PPP4C; Molt-4 cell lysate): 3000 nM
- Kd (CoREST complex): 4 nM
- IC50 (BZW2; K-562 cell lysate): 2790 nM
- IC50 (BZW2; Molt-4 cell lysate): 2450 nM
- IC50 (ISOC2): 3000 nM
- IC50 (WDR5): 420 nM
